Source: patent US9505798B2, “Steroid compounds as RORyt modulators and uses thereof” (New York University, priority 2010, dated 2016)

Columns and labels:
mouse RORγt = target: T1, mouse RORγt (Mus musculus, UniProt P51450); experiment: Drosophila S2 cell RORγt luciferase reporter; type: cell-based; details: for effect on RORγ transcriptional activity: S2 reporter system
T1 construct: mouse RORγt (amino acids 79 to the carboxyl terminal end); expressed in transfected cells
T1 sequence (P51450 79-495 isoform P51450-2): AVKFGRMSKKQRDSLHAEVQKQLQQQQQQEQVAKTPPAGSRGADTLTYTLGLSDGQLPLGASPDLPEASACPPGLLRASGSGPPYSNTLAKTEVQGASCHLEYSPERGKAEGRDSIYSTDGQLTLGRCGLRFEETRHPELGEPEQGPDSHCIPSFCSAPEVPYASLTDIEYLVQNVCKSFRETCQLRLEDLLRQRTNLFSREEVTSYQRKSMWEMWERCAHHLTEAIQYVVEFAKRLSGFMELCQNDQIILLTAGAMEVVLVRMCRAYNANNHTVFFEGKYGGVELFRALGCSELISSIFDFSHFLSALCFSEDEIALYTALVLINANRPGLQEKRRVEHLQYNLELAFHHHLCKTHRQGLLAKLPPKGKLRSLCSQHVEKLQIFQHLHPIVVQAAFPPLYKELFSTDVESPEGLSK
Excerpt: The Drosophila S2 cell line was originally purchased from Invitrogen and was maintained in Schneider's medium supplemented with 10% heat-inactivated bovine fetal calf serum and antibiotics (Invitrogen). […] The resulting chimeric gene was subcloned into the copper inducible pMT/V5-His A vector (Invitrogen). […] Coding sequences for firefly luciferase (Promega) were PCR amplified and subcloned into pUAST vector containing Gal4 binding enhancer sequences. Renilla luciferase construct under the polIII promoter was obtained from Dr. Dasgupta's laboratory (NYU medical center). In order to generate stable cell lines, cells were co-transfected with pMT-G4 DBD-RORγt, pMT-G4 DBD-RORα, pMT-G4 DBD-DHR3, or pMT-G4 DBDVP16 and pHygro plasmids (Invitrogen) and screened for resistant colonies in the presence of hygromycin (0.3 mg/mL). […] Using similar methods, stable clones with genomic integration of the luciferase reporters and other reporters were generated such as pMT-RORα_luc, pMT-DHR3_Luc, or pMT-VP16_luc.
(§1) The following representative compounds are tested for their RORγt inhibitory activity and toxicity.
Promega Dual-Glo system is widely used for HTS as the luciferase substrates. Cell culture medium was reduced to the final volume of 10 μl or less and 10 μl of Dual-glo and 10 μl of Stop-glo luciferase substrates were added in a sequencial manner (Promega). Firefly and Renilla luciferase activity was determined by measuring luminescence signals using an automated 384-well plate reader equipped with multiple stack units (such as the Analyst GT or Envision plate readers).
10,000 Drosophila stable S2 cells with genomic integration of the Cu2+-inducible G4 DBD-mouse RORγ construct were transfected with 5 ng of pUASTfirefly luciferase and 7 ng of Pol III-Renilla luciferase and dispensed into white bottom-tissue culture 384-well plates (Corning). […] The following morning, Stop-glo luciferase substrates (Promega) were used to measure luciferase activity.
The Drosophila S2 cell line was originally purchased from Invitrogen and was maintained in Schneider's Drosophila medium supplemented with 10% heat-inactivated bovine fetal calf serum and 1× antibiotic-antimycotic solution (Invitrogen). […] The resulting chimeric gene was subcloned into the copper inducible pMT/V5-His A vector (Invitrogen) and into the constitutive pAc vector. […] Coding sequences for firefly luciferase (Promega) were PCR amplified and subcloned into the pUAST vector containing five Gal4 binding enhancer sequences. The Renilla luciferase construct under a pol III promoter and the pAc vector were obtained from R. Dasgupta (NYU School of Medicine). To generate cell lines stably expressing various chimeric proteins upon copper addition, S2 cells were co-transfected with pMT plasmids encoding individual G4 DBD chimeric constructs and the pCoHygro plasmid (Invitrogen), before screening for resistant colonies in the presence of hygromycin (0.3 mg/mL). […] The human androgen receptor (hAR) expression plasmid pMK33-hAR and its reporter TAT3-Luc were obtained from M. Garabedian (NYU School of Medicine). […] R1881 (10 nM) and Dafachronic acid (10 μM) were used as ligands for hAR and Daf12. Upon treatment of cells with copper, in 384 well plates, there was specific increase in firefly luciferase activity versus normalized Renilla luciferase activity for all cell lines described above, validating the method for high-throughput screen.
Transfections of firefly and Renilla reporter constructs were performed using the Effectene kit from Qiagen according to the manufacturer's protocol with some modifications.

[1] = test system: human embryonic kidney 293t cell lines; experiment: Toxicity on human embryonic kidney 293T cells
Method: as §1

Na+/K+-ATPase = details: compared with digoxin; cited from earlier work
[2] = test system: human Th17 cell differentiation; experiment: Human Th17 cell differentiation from naive cord blood CD4+ T cells; type: cell-based
Method: (§2) GFP expressing cells were gated for analysis. DMSO, Dig(dhd) (40 μM) or Dig(sal) (10 μM) was added 6-8 h after viral transduction. c, Flow cytometry of the production of IL-17a and IFN-γ by human naive cord blood T cells cultured for six days in the presence of IL-2, IL-23, and IL-1β, with various concentrations of TGF-β. DMSO, Dig(dhd), or Dig(sal) at indicated concentrations (μM) was added 16 h after cytokine addition.
(§3) Blood samples were obtained from the New York Blood Center. Mononuclear cells were prepared from buffy coats from healthy adult donors or from cord blood, using FicollPAQUE gradients. CD4^+ T cells were magnetically selected (autoMACS, Miltenyi). Adult memory CD4^+ T cell subsets were further purified as CD3^+CD4^+CD25^− CD45RO^+CCR6^+CD161^+ by cell sorting on a FACSAria (BD). Naive CD4^+ T cells were isolated from cord blood as CD3^+CD4^+CD45RA^+HLA-DR^−CD25^−DAPI^−. Memory cells were activated with anti-CD3/CD28 coated beads (1 bead/cell) in T cell media (see above) supplemented with 100 U/mL IL-2 (Peprotech), 10 ng/mL IL-1b and 10 ng/mL IL-23 (eBioscience). Naive cells were activated with anti-CD3/CD28 beads and cultured with the same cytokines, and TGF-b (0, 0.1, 1, or, 10 ng/mL) (Peprotech), in XVIVO-20 (Lonza) media. […] Naive CD4^+ T cells, cultured in XVIVO-20 media supplemented 100 U/mL IL-2 (Peprotech), were transduced with RORad-IRES-GFP or RORγt-IRES-GFP on day 1 and analyzed on day 6. GFP expressing cells were gated for analysis. DMSO or compounds were added 6-8 hours after the viral transduction.
(§4) Blood samples were obtained from the New York Blood Center. Mononuclear cells were prepared from buffy coats from healthy adult donors or from cord blood, using FicollPAQUE gradients. CD4^+ T cells were magnetically selected (autoMACS, Miltenyi). Adult memory CD4+ T cell subsets were further purified as CD3^+CD4^+CD25^−CD45RO^+CCR6^+CD161^+ by cell sorting on a FACSAria (BD). Naive CD4^+ T cells were isolated from cord blood as CD3^+CD4^+CD45RA^+HLA^−DR^−CD25^−DAPI^−. Memory cells were activated with anti-CD3/CD28 coated beads (1 bead/cell) in T cell media (see above) supplemented with 100 U/mL IL-2 (Peprotech), 10 ng/mL IL-1β and 10 ng/mL IL-23 (eBioscience). Naive cells were activated with anti-CD3/CD28 beads and cultured with the same cytokines, and TGF-β (0, 0.1, 1, or, 10 ng/mL) (Peprotech), in XVIVO-20 (Lonza) media. […] Naive CD4+ T cells, cultured in XVIVO-20 media supplemented with 100 U/mL IL-2 (Peprotech), were transduced with RORαd-IRES-GFP or RORγt-IRES-GFP on day 1 and analyzed on day 6. GFP expressing cells were gated for analysis. DMSO or compounds were added 6-8 hours after the viral transduction.

human RORγt = target: T2, human RORγt (Homo sapiens, UniProt P51449); experiment: IL-17a induction in human CD4+ T cells transduced with RORαd, RORβ or RORγt; type: cell-based; details: 10 μM, FIG. 3b
T2 construct: expressed in transfected cells; host or cells: human CD4+ T cells (cord blood or adult blood), lentiviral HDV-IRES-GFP/HSA vectors
T2 sequence (P51449 1-497 isoform P51449-2): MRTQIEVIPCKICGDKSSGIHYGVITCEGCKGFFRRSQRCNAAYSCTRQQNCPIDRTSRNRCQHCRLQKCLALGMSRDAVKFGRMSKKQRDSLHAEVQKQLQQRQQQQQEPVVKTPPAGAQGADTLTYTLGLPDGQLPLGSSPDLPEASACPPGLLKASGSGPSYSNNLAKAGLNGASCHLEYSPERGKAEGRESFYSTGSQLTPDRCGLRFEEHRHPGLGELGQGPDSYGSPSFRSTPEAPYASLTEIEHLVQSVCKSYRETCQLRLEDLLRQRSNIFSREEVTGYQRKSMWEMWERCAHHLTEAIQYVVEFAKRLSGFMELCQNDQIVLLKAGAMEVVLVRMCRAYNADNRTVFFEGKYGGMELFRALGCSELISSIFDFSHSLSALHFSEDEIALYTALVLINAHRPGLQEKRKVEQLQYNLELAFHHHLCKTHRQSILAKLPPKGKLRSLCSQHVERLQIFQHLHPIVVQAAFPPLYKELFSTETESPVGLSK
Method: as §2, §3
Blood samples were obtained from the New York Blood Center. Mononuclear cells were prepared from buffy coats from healthy adult donors or from cord blood, using FicollPAQUE gradients. CD4^+ T cells were magnetically selected (autoMACS, Miltenyi). Adult memory CD4+ T cell subsets were further purified as CD3^+CD4^+CD25^−CD45RO^+CCR6^+CD161^+ by cell sorting on a FACSAria (BD). […] Naive CD4+ T cells, cultured in XVIVO-20 media supplemented with 100 U/mL IL-2 (Peprotech), were transduced with RORαd-IRES-GFP or RORγt-IRES-GFP on day 1 and analyzed on day 6. […]

[3] = Precipitation noted in Table 2; type: physicochemical
[4] = test system: IL-17a production in human CD4+ T cells; experiment: Human cord blood CD4+ T cells expressing murine ATP1a1, Th17 conditions; type: cell-based; details: murine Na+/K+-ATPase α1 expressed, 10 μM
Method: as §4

Compound | effect on RORγ transcriptional activity (mouse RORγt) | cytotoxic concentration on human cells [1] [µM] | Na+/K+-ATPase inhibition / binding affinity (Na+/K+-ATPase) | IC50 (mouse RORγt) [nM] | IFN-γ expression in T cells ([2]; FIG. 3c) | Th17 cell differentiation ([2]; FIG. 3c) | inhibition at 10 µM ([2]; Homo sapiens, CD4+ T, at 10 uM) [%] | RORγt-mediated IL-17a induction (versus RORαd) (human RORγt) | Note [3] | IL-17a expression [4]
CC1OC(OC2C(O)CC(OC3C(O)CC(OC4CCC5(C)C(CCC6C5CC(O)C5(C)C(C7COC(=O)C7)CCC65O)C4)OC3C)OC2C)CC(O)C1O (centres unmarked) [20,22-Dihydrodigoxin] | inhibited | 2.5 | much lower binding affinity than that of digoxin | – | – | – | – | – | – | –
CC1OC(OC2C(O)CC(OC3C(O)CC(OC4CCC5(C)C(CCC6C5CC(O)C5(C)C(C7=CC(=O)OC7=Cc7ccccc7O)CCC65O)C4)OC3C)OC2C)CC(O)C1O (centres unmarked) [Compound 15, Digoxin-21-salicylidene] | – | – | – | < 1000 | reciprocal increases | blocked | ~70 | selectively suppressed | precipitate at high | –
CC(=O)O[C@H]1C[C@H](O[C@H]2[C@@H](O)C[C@H](O[C@H]3[C@@H](O)C[C@H](O[C@H]4CC[C@@]5(C)[C@H](CC[C@@H]6[C@@H]5C[C@@H](O)[C@]5(C)[C@@H](C7=CC(=O)OC7)CC[C@]65O)C4)O[C@@H]3C)O[C@@H]2C)O[C@H](C)[C@H]1O[C@@H]1O[C@H](CO)[C@@H](O)[C@H](O)[C@H]1O [lanatoside C, Lanatoside C] | no significant effect | – | – | – | – | – | – | – | – | no effect
